Molecules are shown by their SMILES. Bounds are passed on as bounds.

The source of these data is ChEMBL document CHEMBL1806452, “New salicylamide and sulfonamide derivatives of quinoxaline 1,4-di-N-oxide with antileishmanial and antimalarial activities” (Bioorg Med Chem Lett, 2011).

Data set [1] deals with Plasmodium falciparum. The data set is described as follows: Antiplasmodial activity against chloroquine-resistant Plasmodium falciparum FCR-3 infected in human erythrocytes assessed as inhibition of [3H]hypoxanthine uptake after 48 hrs. It counts as functional, organism-based.
Data set [2] concerns Plasmodium falciparum. The data set is described as follows: Ratio of chloroquine IC50 to compound IC50 for chloroquine-resistant Plasmodium falciparum FCR-3 infected in human erythrocytes. Format: functional.
The test system of data set [3] is Leishmania amazonensis. The experiment in a line: Leishmanicidal activity against axenic amastigotes of Leishmania amazonensis by MTT assay. Format: functional, organism-based.
Data set [4] concerns Leishmania amazonensis. The experiment in a line: Ratio of amphotericin B IC50 to compound IC50 for axenic amastigotes of Leishmania amazonensis. It counts as functional.
A short description of data set [5]: Cytotoxicity against mouse peritoneal macrophages after 48 hrs by trypan blue exclusion method. It counts as cell-based, Peritoneal macrophage cell.
The nature of data set [6]: Selectivity index, ratio of CC50 for mouse peritoneal macrophages to IC50 for axenic amastigotes of Leishmania amazonensis. It counts as functional.

As usually defined, the IC50 is the point on the concentration scale where inhibition reaches its midpoint. One may read the CC50 as the concentration that lowers cell viability or growth by half. Low readings indicate greater toxicity to the cells, high ones lower toxicity to the cells. For the molecule `Cc1ccc2c(c1)[n+]([O-])c(C#N)c(NS(=O)(=O)c1ccc3ccccc3c1)[n+]2[O-]`, the IC50 in data set [1] is over 24.6 µM; in data set [3], 16.3 µM. In addition, the figures for the “Ratio IC50” value in data set [2] and in data set [4] were over 82 and 81.5, respectively. For the same molecule, in data set [5], the CC50 at 48 h was over 246 µM. Besides, the “Ratio CC50/IC50” value in data set [6] is listed as over 15.1.

On to `Cc1cc2c(cc1C)[n+]([O-])c(NS(=O)(=O)c1ccc3ccccc3c1)c(C#N)[n+]2[O-]`, for which the IC50 in data set [1] was over 23.8 µM; in data set [3], over 100 µM. Further, the “Ratio IC50” value is on record as over 79 in data set [2] and over 100 in data set [4].

Take `N#Cc1c(NS(=O)(=O)c2ccccc2[N+](=O)[O-])[n+]([O-])c2ccc(Cl)cc2[n+]1[O-]`: the IC50 stood at 17.4 µM in data set [1] and 3.1 µM in data set [3]. The “Ratio IC50” value in data set [2] was 58; in data set [4], 15.5. This molecule gave a CC50 at 48 h in data set [5] of 6.8 µM. Further, the “Ratio CC50/IC50” value in data set [6] is 2.2.

As to `N#Cc1c(NS(=O)(=O)c2ccc([N+](=O)[O-])cc2)[n+]([O-])c2ccc(Cl)cc2[n+]1[O-]`, the concentration for half-maximal inhibition (IC50) in data set [1] was over 23.7 µM; in data set [3], 2.1 µM. The results for the “Ratio IC50” value in data set [2] and in data set [4] were over 79 and 10.5, respectively. This molecule also registered a CC50 at 48 h in data set [5] of 7.9 µM. In data set [6], the “Ratio CC50/IC50” value was found to be 3.8.

`N#Cc1c(NS(=O)(=O)c2ccc([N+](=O)[O-])cc2)[n+]([O-])c2cc(Cl)c(Cl)cc2[n+]1[O-]`: the figures for the IC50 in data set [1] and in data set [3] were 18.7 µM and 15.9 µM, respectively. Also, the “Ratio IC50” value in data set [2] was determined as 62; in data set [4], 79.5. The same molecule had a CC50 at 48 h in data set [5] of 89.1 µM. The “Ratio CC50/IC50” value in data set [6] was 5.6.

Consider `N#Cc1c(NS(=O)(=O)c2ccc([N+](=O)[O-])cc2)[n+]([O-])c2ccccc2[n+]1[O-]`, for which the IC50 worked out at 20 µM in data set [1] and 86.3 µM in data set [3]. In addition, the figures for the “Ratio IC50” value in data set [2] and in data set [4] were 67 and 430, respectively.

Consider `CC(=O)Oc1ccccc1C(=O)Nc1c(C#N)[n+]([O-])c2ccccc2[n+]1[O-]`, for which the IC50 is 41.4 µM in data set [1] and 112 µM in data set [3]. Further, the results for the “Ratio IC50” value in data set [2] and in data set [4] were 138 and 559, respectively.

In the case of `CC(=O)Oc1ccccc1C(=O)Nc1c(C#N)[n+]([O-])c2cc(Cl)ccc2[n+]1[O-]`, the IC50 in data set [1] amounted to 10.8 µM; in data set [3] it was 33.6 µM. Further, the entries for the “Ratio IC50” value in data set [2] and in data set [4] were 36 and 168, respectively.

On to `CC(=O)Oc1ccccc1C(=O)Nc1c(C#N)[n+]([O-])c2cc(C)ccc2[n+]1[O-]`, for which the IC50 is 52.8 µM in data set [1] and 18.8 µM in data set [3]. For the same molecule, the entries for the “Ratio IC50” value in data set [2] and in data set [4] were 176 and 94, respectively. In addition, the CC50 at 48 h in data set [5] was determined as 21.7 µM. In addition, the “Ratio CC50/IC50” value in data set [6] came to 1.1.

With `COc1ccc2c(c1)[n+]([O-])c(C#N)c(NC(=O)c1ccccc1OC(C)=O)[n+]2[O-]`, the IC50 in data set [1] was found to be 27 µM; in data set [3] it was 42.4 µM. For the same molecule, the “Ratio IC50” value is recorded as 90 in data set [2] and 212 in data set [4].

In the case of `CC(=O)Oc1ccccc1C(=O)Nc1c(C#N)[n+]([O-])c2cc(F)c(F)cc2[n+]1[O-]`, the IC50 in data set [1] is 36 µM; in data set [3] it was 14.8 µM. The “Ratio IC50” value was 120 in data set [2] and 74 in data set [4]. The CC50 at 48 h in data set [5] came out at 10.5 µM. In addition, in data set [6], the “Ratio CC50/IC50” value worked out at 0.7.

For the molecule `CC(=O)Oc1ccccc1C(=O)Nc1c(C#N)[n+]([O-])c2cc(C)c(C)cc2[n+]1[O-]`, the 50% inhibitory concentration (IC50) stood at 59.4 µM in data set [1] and 17.6 µM in data set [3]. The “Ratio IC50” value in data set [2] worked out at 198; in data set [4], 88. In addition, half-maximal cytotoxicity in data set [5] (CC50 at 48 h) was put at 12.5 µM. Further, in data set [6], the “Ratio CC50/IC50” value came out at 0.7.

With `CC(=O)Oc1ccccc1C(=O)Nc1c(C#N)[n+]([O-])c2cc(F)ccc2[n+]1[O-]`, the IC50 was 7.4 µM in data set [1] and 7.3 µM in data set [3]. Further, the “Ratio IC50” value in data set [2] stood at 25; in data set [4], 36.5. In data set [5], this molecule had a CC50 at 48 h of 13.6 µM. Also, the “Ratio CC50/IC50” value in data set [6] was 1.8.

For `N#Cc1c(NS(=O)(=O)c2ccc3ccccc3c2)[n+]([O-])c2ccc(Cl)cc2[n+]1[O-]`, the half-maximal inhibitory concentration (IC50) was over 23.4 µM in data set [1] and 20 µM in data set [3]. The “Ratio IC50” value in data set [2] was over 78; in data set [4], 100. In data set [5], this molecule gave a CC50 at 48 h of 88.6 µM. The “Ratio CC50/IC50” value in data set [6] was found to be 4.4.

On to `C[C@@H]1[C@H](O)[C@@H](C)/C=C/C=C/C=C/C=C/C=C/C=C/C=C/[C@H](O[C@@H]2O[C@H](C)[C@@H](O)[C@H](N)[C@@H]2O)C[C@@H]2O[C@](O)(C[C@@H](O)C[C@@H](O)[C@H](O)CC[C@@H](O)C[C@@H](O)CC(=O)O[C@H]1C)C[C@H](O)[C@H]2C(=O)O` [AMPHOTERICIN B], for which the “Ratio IC50” value in data set [4] is reported as 1. In data set [5], this molecule came in with a CC50 at 48 h of 4.4 µM.

With `CCN(CC)CCCC(C)Nc1ccnc2cc(Cl)ccc12` (stereo not drawn) [CHLOROQUINE], half-maximal inhibition in data set [3] (IC50) required 20 µM. This molecule also showed a half-maximal cytotoxic concentration (CC50) at 48 h in data set [5] of 88.6 µM.
